Measurements reported in patent US12156883B2, “Bisphosphocin gel formulations and uses thereof” (Lakewood Amedex, Inc., priority 2017, dated 2024).
Entries after “also recorded” stand apart in the source; their conditions may differ.

Test system: methicillin resistant Staphylococcus aureus strain USA300 (TPPS 1056)
Assay: Staphylococcus aureus-induced murine dermal infection model
Format: in vivo
Conditions: female SKH1 mice, topical 10% Nu-3 fatty alcohol-based gel pH 1.5, 4 h after challenge
Protocol: Female SKH1 mice ordered from Charles River Laboratories are acclimated to housing conditions and handled in accordance with Animal Use Protocol (AUP) number TP-18. The animals are acclimated for a minimum of 24 hours prior to bacterial challenge and are 6-8 weeks old on Day 0 of the experiment. Only animals deemed healthy are included in this study. Animals are fed irradiated Teklad Global Rodent Diet 2918 and water ad libitum. Mice are housed in static cages with irradiated Teklad ⅛″ corn cob bedding 7902 inside bioBubble® Clean Rooms that provide H.E.P.A. filtered air into the bubble environment at 100 complete air changes per hour. All treatments and infectious challenges are carried out in a BSL2 surgical suite. The environment is controlled to a temperature range of 74°±4° F. and a humidity range of 30-70%. […]
Immediately following tape stripping, each animal receives a topical application with approximately 6.0 log10 CFU per mouse in a volume of 100 μL spread in an area approximately 0.75″×0.75″. […] The final CFU count from the challenge suspension determined that 5.6 log10 CFU per mouse is delivered. […]
Following euthanasia, a section of excised skin approximately 0.5″×0.5″ is aseptically removed from the infected/treated area and transferred to vials with 2.0 mL of sterile water and weighed. […] Tissue pH is measured using litmus paper and recorded. […]

CCCCOP(=O)(O)OC[C@H]1OC(n2cc(C)c(=O)[nH]c2=O)C[C@@H]1OP(=O)(O)OCCCC (stereo partly drawn) [Nu-3, (2R,3S)-2-((butoxy(hydroxy)phosphoryl)oxy)methyl)-5-(5-methyl-2,4-dioxo-3,4-dihydropyrimidin-1(2H)-yl)tetrahydrofuran-2-yl) butyl hydrogen phosphate]
CFU burden compared to untreated control animals (5 and 12 hours post-challenge): significant decreases; also recorded: significantly decreases | CFU burden compared to vehicle-treated animals (all harvest time points): significant decreases; also recorded: significantly decreases
